According to patent US8461183B2, “PPAR agonist compounds, preparation and uses” (Genfit, priority 2008, dated 2013):

How the values were obtained:
[1] = system: PPARα target genes (ACO, PDK-4, Apo CIII) in liver; experiment: Hepatic expression of PPARα target genes (quantitative RT-PCR) in the ApoE2/E2 mouse; assay type: in vivo; details: 10 and 100 mpk, 7 days, normalized to 36B4
Source text: The PPARα agonist properties previously measured in vitro should be translated at the hepatic level by a change in the level of expression of the target genes directly under the control of the PPARα receptor: the genes that were studied in these experiments are those coding for ACO (a key enzyme in the mechanism of β-oxidation of fatty acids), PDK-4 (an enzyme of carbohydrate metabolism) and Apo CIII (apolipoprotein involved in lipid metabolism). This change in gene expression after treatment with the compounds according to the invention is therefore also an indicator of their hypolipemic character.
Apo E2/E2 transgenic mice were kept in a cycle of light and darkness of 12 hours/12 hours at a constant temperature of 20±3° C. After acclimation for one week, the mice were weighed and put into groups of 6 animals selected in such a way that the distribution of their bodyweight and of their plasma lipid values determined first before the experiment are uniform. The compounds tested were suspended in carboxymethylcellulose (Sigma C4888) and administered at the chosen dose by stomach tube, at a rate of once a day for 7 days at the chosen dose. The animals had free access to water and food. At the end of the experiment, the animals were anesthetized after fasting for 4 hours, a blood sample was taken on anticoagulant (EDTA), then the mice were weighed and euthanased. The plasma was separated by centrifugation at 3000 rev/min for 20 minutes, and the samples were stored at +4° C. for the biochemical assays. Samples of liver were taken and frozen immediately in liquid nitrogen and then stored at −80° C. for subsequent analyses.
Total RNA was extracted from fragments of liver using the NucleoSpin® 96 RNA kit (Macherey Nagel, Hoerdt, France) according to the manufacturer's instructions. 1 μg of total RNA (quantified using the Ribogreen RNA quantification kit (Molecular Probes)) was then reverse transcribed to complementary DNA by a reaction of 1 hour at 37° C. in a total volume of 20 μl containing buffer 1× (Sigma), 1.5 mM of DTT, 0.18 mM of dNTPs (Promega), 200 ng of pdN6 (Amersham), 30U of RNase inhibitor (Sigma) and 1 μl of MMLV-RT (Sigma).
The quantitative PCR experiments were performed using the MyiQ Single-Color Real-Time PCR Detection System (Biorad, Marnes-la-Coquette, France) and were carried out using the iQ SYBR Green Supermix kit according to the supplier's recommendations, in 96-well plates, on 5 μl of diluted reverse transcription reaction mixtures, with a hybridization temperature of 55° C. Specific primer pairs of the genes under investigation were used:
The amount of fluorescence emitted is directly proportional to the amount of complementary DNA present at the start of the reaction and amplified during PCR. For each target investigated, a range is prepared by successive dilutions of a pool consisting of a few μl of different reverse transcription reactions. The relative levels of expression of each target are thus determined using the curves of efficacy obtained with the scale points.
The levels of expression of the genes of interest were then normalized relative to the level of expression of the 36B4 reference gene (whose specific primers are: […]
The induction factor, i.e. the ratio of the relative signal (induced by the compound according to the invention) to the mean of the relative values of the control group, was then calculated for each sample. The higher this factor, the more the compound has a character of activation of gene expression. The final result is represented as the mean of the induction values in each experimental group.

[2] = system: db/db mouse; experiment: Antidiabetic character in the db/db mouse: plasma glycemia, insulinemia, HOMA index; assay type: in vivo; details: 30 mpk oral, 8 days
Experimental: The aim of this study is to evaluate in vivo the antidiabetic character of the compounds according to the invention, in the db/db mouse (Berger J et al., 1996). The antidiabetic effect of the compounds is evaluated by measuring glycemia and insulinemia after 8 days of treatment. In diabetic animals (as in humans), administration of glucose leads to a significant increase in the plasma level of insulin. This induced hyperinsulinemia causes a lowering of glycemia, which is delayed in insulin-resistant animals, for example in the db/db mouse.
Male db/db mice (CERJ—Le Genest St Isle-France) are used for this experiment. After acclimation for one week, the mice were weighed and put into groups of 8 animals, selected in such a way that the distribution of their bodyweight and of their fasting glycemia determined for the first time before the experiment are uniform. The compound tested was suspended in carboxymethylcellulose (Sigma C4888) and administered by stomach tube, at a rate of once a day for 9 days at the chosen dose. The animals had free access to water and food (standard diet) and were housed in ventilated cages with a rhythm of light and darkness of 12 hours/12 hours at a constant temperature of 20±3° C. The food intake and weight gain were recorded throughout the experiment. After administration of the compound for 8 days, a blood sample was taken by puncture in the retro-orbital sinus of the animals under volatile anesthesia with isoflurane in order to measure the plasma concentrations of glucose and insulin.
Assay of murine insulin is carried out by the Elisa method (Insulin Elisa Kit-Crystal Chem. USA). A mouse anti-insulin antibody is fixed on a microplate. The serum to be assayed for insulin is then deposited on this plate. A guinea pig anti-insulin antibody will recognize the insulin/mouse monoclonal anti-insulin antibody complex and bind to it. […]
Glucose was determined by enzyme assays (bioMérieux-Lyons-France) according to the suppliers recommendations.

SMILES | hepatic expression of gene coding for ACO [1] | hepatic expression of gene coding for ApoCIII [1] | hepatic expression of gene coding for PDK-4 [1] | glycemic profile (plasma glucose) [2] | insulinemic profile (plasma insulin) [2] | HOMA index ([2]; calculated from plasma glucose and insulin)
COc1nc(-c2ccccc2)ccc1COc1ccc(OCC(=O)O)cc1 [Cpd 2, 2-(4-((2-methoxy-6-phenylpyridin-3-yl)methoxy)phenoxy)ethanoic acid] | hepatic overexpression | significant inhibition | hepatic overexpression | – | – | –
COc1nc(-c2ccccc2)ccc1CNc1ccc(OCC(=O)O)cc1 [Cpd 4, 2-(4-(((2-methoxy-6-phenylpyridin-3yl)methyl)amino)phenoxy)ethanoic acid] | hepatic overexpression | significant inhibition | hepatic overexpression | – | – | –
COc1nc(-c2ccc(C(F)(F)F)cc2)ccc1COc1ccc(OCC(=O)O)cc1 [Cpd 24, 2-(4-((2-methoxy-6-(4-(trifluoromethyl)phenyl)pyridin-3-yl)methoxy)-phenoxy)ethanoic acid] | – | – | – | overall improvement | overall improvement | decrease
